# Columns and labels:
# [1] = system: angiogenesis of chicken embryo chorioallantoic membrane; assay: Chicken embryo chorioallantoic membrane (CAM) angiogenesis assay; format: in vivo; conditions: 10 μg (positive control), CAM, 72 hours
# Excerpt: In this study, CAM assay was used to investigate the activity of fusion protein I, protein II, protein III, protein IV, and protein V to inhibit angiogenesis in vivo. The study has shown that the biosynthesis rate of collagen reached the maximum on the 8th to 11th day of chicken embryo development, which was the most vigorous stage of angiogenesis, and the body's immune system had not yet been fully established at that time, and thus the chicken embryos developed to the 8th day was selected to be administered. […] The following steps were used.
# (1) The White Leghorn chicken embryos on day 6 were cultured in a 37° C. incubator at 60%-70% humidity for two days.
# (2) A 1.0 cm×1.0 cm window was drilled above the chicken embryo air sac, and the inner membrane was torn off with forceps to expose the chorioallantoic membrane. Lens paper having a diameter of 5 mm was used as a loading carrier, and was placed on the chorioallantoic membrane of the chicken embryo air sac. Filter paper with PBS was used as a blank group, and the administration group was added with different doses of fusion protein.
# (3) The chicken embryo air sac was sealed with a sterile transparent tape, and after culturing at 37° C. for 72 hours, the chicken embryo air sac was opened, and a fixative (formaldehyde:acetone=1:1) was added for fixation for 15 minutes. The chorioallantoic membrane to which the lens paper was adhered was taken out, the distribution of the new blood vessels was observed, and the new blood vessels were counted and photographed. Five replicates were set for each dose and the results were statistically analyzed.
# mouse spleen lymphocytes = assay: Proliferation of mouse spleen lymphocytes (ConA, MTT); format: cell-based; conditions: dose 20 μg/mL
# Procedure: Tris-NH4Cl was used to break the red blood cells, which were allowed to stand in an ice water bath for 4 min and centrifuged (1000 rpm, 5 min), the supernatant was discarded, and the cells were washed twice with sterile PBS.
# The cells were statically cultured in a cell incubator at 37° C. for 48 h. After the completion of the culture, 20 μL of MTT was added to each well, and the culture was continued for 4 h. Finally, all the solutions in each well were discarded, 100 μL of DMSO was added to each well, and the mixture was shaken and detected by a microplate reader for OD value at 570 nm. 5 parallels were preformed for per well.
# [2] = system: IL-1β production by mouse peritoneal macrophages; assay: IL-1β production by mouse peritoneal macrophages (ELISA); format: cell-based; conditions: dose 20 μg/mL
# Procedure: (1) IL-1β production: mice were intraperitoneally injected with 1 mL of broth medium containing 6% starch, and three days later, the mouse peritoneal macrophages were aseptically taken, washed twice with a 1640 medium, and the cell concentration was adjusted to 2×10^6 cells/mL, inoculated into a 24-well culture plate at 1 mL/well, incubated for 3 h in a cell incubator, and shaken once every 30 min, so that the cells were allowed to adhere sufficiently. Then, the cells were washed twice with a culture liquid to remove un-adhered cells. […] The supernatant was taken as a sample for testing activity of IL-1β.
# (2) Determination of IL-1β content: the detection was performed by using mouse IL-1β enzyme-linked immunosorbent assay kit from R&D company. According to the instructions of the kit, the procedures were as follows: the reaction well for the test samples and different concentrations of standards were sealed with sealing tapes, respectively, incubation was performed at 37° C. for 90 min; the plate was washed four times; a biotinylated antibody working solution (100 μL/well) was added, the reaction well was sealed with sealing tapes, and incubation was performed at 37° C. for 60 min; the plate was washed four times; an enzyme conjugate working solution (100 μL/well) was added, the reaction well was sealed with sealing tapes, incubation was performed at 37° C. for 30 min; the plate was washed four times; a developer (100 μL/well) was added, incubation was performed at 37° C. for 10 to 20 min, a stop solution (100 μL/well) was added and mixed and the OD450 value was measured.
# [3] = system: peritoneal capillary permeability in mice; assay: Peritoneal capillary permeability in mice (HAc, Evans blue); format: in vivo; conditions: mice, dose 10 mg/kg
# Procedure: The drug was administered once by injection (EDSM needed to be administered twice a day), and the blank model group was given an equal volume of physiological saline and fed normally. On the 5th day, a 5 g/L Evans blue physiological saline solution was injected into the tail vein at […], followed by intraperitoneal injection ([…]) of a HAc solution (6 mL/L) to induce inflammation. After 20 min, the mice were sacrificed by cervical dislocation. 5 mL of physiological saline was intraperitoneally injected, the abdomen was gently rubbed for 2 min, the abdominal cavity was cut, a peritoneal washing solution was collected and centrifuged at 4000 rpm for 10 min, 1 mL of supernatant was taken, and 3 mL of physiological saline was added to obtain 4 mL of dilution. The absorbance OD value of the dilution was measured by an ultraviolet spectrophotometer at a wavelength of 590 nm, and the amount of pigment exudation was expressed by the OD590 nm value, and the peritoneal capillary permeability in mice was examined.
# [4] = system: toe swelling in rat induced by carrageenan; assay: Acute inflammation of toe swelling in rat induced by carrageenan; format: in vivo; conditions: 10 mg/kg (positive control), rat foot
# Procedure: 80 SD rats were randomly divided into 8 groups with 10 mice for each group. […] The drug was administered once by injection, and the model group was given an equal volume of physiological saline and fed normally. On the third day, 0.1 mL of 1% carrageenan was injected subcutaneously into the right hind toes of the rats to induce inflammation. The foot volume was measured at 1 h, 3 h, 5 h, and 7 h after inflammation. The swelling degree of the foot was calculated according to the following formula: the swelling degree of the foot (mL)=the volume of the foot after inflammation—the volume before inflammation. The number of milliliters of spilled liquid was recorded (method: the protruding point of the right joint was circled with a ballpoint pen and used as a measurement mark, and the right hind feet of the rat were sequentially placed in the volume measuring device, so that the hind limbs were exposed outside the cylinder, and the depth of the immersion was limited to the overlap of the circle and the liquid level. After the foot entered the liquid, the liquid level was raised, and the volume of the spilled liquid was the volume of the right hind foot of the rat, and the normal volume of the right hind foot of each rat is sequentially determined).
Compound,Blood vessel number [1],A570 nm/A630 nm (mouse spleen lymphocytes),PI (%) (mouse spleen lymphocytes),IL-1β [2] [pg/mL],PI (%) [2] [%],Exudation rate (OD590) [3],Swelling degree 1 h ([4]; 1 h after carrageenan) [mL],Swelling degree 3 h ([4]; 3 h after carrageenan) [mL],Swelling degree 5 h ([4]; 5 h after carrageenan) [mL],Swelling degree 7 h ([4]; 7 h after carrageenan) [mL]
Avastin: positive control group in HRCEC and CAM assays [reference compound],57 ± 16,–,–,–,–,–,–,–,–,–
"C[C@@H]1C[C@H]2[C@@H]3CCC4=CC(=O)C=C[C@]4(C)[C@@]3(F)[C@@H](O)C[C@]2(C)[C@@]1(O)C(=O)CO [Dex, dexamethasone, reference compound]",–,0.3401 ± 0.1131,41.19,310.25 ± 20.32,63.36,0.22 ± 0.03,0.21 ± 0.11,0.23 ± 0.04,0.25 ± 0.09,0.27 ± 0.12
